The results in this text go back to patent publication US11260139B2, “Rapid surface disinfection method and apparatus” (priority 2011, dated 2022).

For this experiment, the system named is S. aureus bacteria. The experiment can be described thus: survival of S. aureus bacteria on agar culture plates following 3 sec. exposure to atomized liquid. Format: cell-based. Particulars: for antimicrobial effectiveness of the liquid as solvent of the nitric oxide solution: liquid atomized with NO, rank: ethanol>isopropanol>water. The procedure:
The survival fraction is the fraction of at least 100 colonies that survive the treatment. Control plates were exposed to air for 3 sec. Ethanol plates were exposed to ethanol atomized with nitrogen. 25% NO plates were exposed to ethanol atomized with 25% NO and 75% nitrogen.
Experiments were conducted on agar culture plates to compare nitric oxide concentrations ranging from 0% in nitrogen (the ‘ethanol’ experiment) to 100% NO.

For `CCO` [ethanol], the “antimicrobial effectiveness of the liquid as solvent of the nitric oxide solution” value (“antimicrobial effectiveness” below) is “effective”.

Turning to `[N]=O` [NO, nitric oxide], the “effect of NO on the antimicrobial activity of the atomized liquid” value (NO concentrations 0% to 100% in nitrogen compared) is reported as “dramatically increases the antimicrobial activity”.

On to `O` [water], for which the “antimicrobial effectiveness” value is reported as “effective”.

As to `CC(C)O` [isopropanol], the “antimicrobial effectiveness” value is given as “effective”.
